Measurements taken from patent US4880825A, “Mitomycin derivatives” (Kyowa Hakko Kogyo Kabushiki Kaisha, priority 1987, dated 1989).
Values after ≈ are worked out from the molar mass of the structure shown.

What was measured:
[1] = system: Leukemia P-388; experiment: Effects upon Leukemia P-388 (survival of CDF1 mice implanted with P-388 cells); type: in vivo, mouse (CDF1); settings: abdominally once; for ILS(%) (Increased Life Span): 24 h after implantation, CDF1 mice, 33 days, ratio to untreated control survival; for ILS* (ratio of ILS % of test compound to ILS % of mitomycin C): relative to mitomycin C as control under the same conditions
Method: P-388 ascites tumour was abdominally implanted into a mouse (DBA/2). 7 days after this, ascitic fluid was collected from the tumour-carrying mouse. The number of P-388 cells was counted to prepare a cell suspension containing 5×10^6 cells/ml using a sterilized physiological saline solution. 0.2 ml of the cell suspension containing 1×10^6cells was abdominally implanted into each mouse of CDF1 strain (body weight 20-25 g). […] The effect of the test compound was evaluated with reference to the ILS % (Increased Life Span) (the ratio of the average survival days of the test animals to the average survival days of the control group of untreated animals). The following Table 5 indicates ILS* (the ratio of ILS % obtained using each of the test compounds to the corresponding ILS % obtained using mitomycin C as control under the same conditions).

[2] = system: Streptococcus faecalis ATCC 10541; experiment: Anti-bacterial activity, minimum inhibitory concentration by agar dilution method at pH 7.0 (SF); type: cell-based; settings: Enterococcus faecalis, ATCC10541
Text: (§1) In this table, the microorganisms are abbreviated as follows:
SF: Streptococcus faecalis ATCC 10541

[3] = Acute toxicity (LD50, Behrens-Koerber method); settings: mouse, in vivo, ip; ddy mice, abdominally administered once, 14 days observation
Method: From the death ratio of each test group of animals, acute toxicity (LD50) was calculated by the "Behrens-Koerber" method.

[4] = system: Klebsiella pneumoniae ATCC 10031; experiment: Anti-bacterial activity, minimum inhibitory concentration by agar dilution method at pH 7.0 (KP); type: cell-based; settings: ATCC10031
Text: as §1
KP: Klebsiella pneumoniae ATCC 10031.

[5] = system: Staphylococcus aureus ATCC 6538P; experiment: Anti-bacterial activity, minimum inhibitory concentration by agar dilution method at pH 7.0 (SA); type: cell-based; settings: ATCC6538P
Text: as §1
SA: Staphylococcus aureus ATCC 6538P

[6] = system: Proteus vulgaris ATCC 6897; experiment: Anti-bacterial activity, minimum inhibitory concentration by agar dilution method at pH 7.0 (PV); type: cell-based; settings: ATCC6897
Text: as §1
PV: Proteus vulgaris ATCC 6897

SMILES	ILS(%) (Increased Life Span) ([1]; dose 0.39 mg/kg)	ILS* (ratio of ILS % of test compound to ILS % of mitomycin C) ([1]; dose 0.39 mg/kg)	MIC [2]	LD50 at 336 h [3]	MIC [4]	MIC [5]	MIC [6]	ILS(%) (Increased Life Span) ([1]; dose 12.5 mg/kg)	ILS* (ratio of ILS % of test compound to ILS % of mitomycin C) ([1]; dose 12.5 mg/kg)	ILS(%) (Increased Life Span) ([1]; dose 1.56 mg/kg)	ILS* (ratio of ILS % of test compound to ILS % of mitomycin C) ([1]; dose 1.56 mg/kg)	ILS(%) (Increased Life Span) ([1]; dose 5 mg/kg)	ILS* (ratio of ILS % of test compound to ILS % of mitomycin C) ([1]; dose 5 mg/kg)	ILS(%) (Increased Life Span) ([1]; dose 2.5 mg/kg)	ILS* (ratio of ILS % of test compound to ILS % of mitomycin C) ([1]; dose 2.5 mg/kg)
CO[C@@]12[C@H](COC(N)=O)C3=C(C(=O)C(C)C4(OCCO4)C3=O)N1C[C@@H]1N[C@@H]12 (stereo partly shown) [Compound 1, 7-demethoxy-6,7-dihydro-7-ethylenedioxymitomycin A]	169%	1.00	0.078 µg/mL (≈ 0.206 µM)	0.7 mg/kg	0.0049 µg/mL (≈ 0.0129 µM)	0.039 µg/mL (≈ 0.103 µM)	0.0098 µg/mL (≈ 0.0258 µM)								
CN1[C@H]2[C@@H]1CN1C3=C(C(=O)C4(OCCO4)C(C)(Cl)C3=O)[C@H](COC(N)=O)[C@@]21O (stereo partly shown) [Compound 9, 6-chloro-7-demethoxy-6,7-dihydro-7-ethylenedioxymitomycin B]			10 µg/mL (≈ 24.2 µM)	15 mg/kg	5 µg/mL (≈ 12.1 µM)	> 40 µg/mL	> 40 µg/mL	159%	1.13						
CO[C@@]12[C@H](COC(N)=O)C3=C(C(=O)C(C)(Cl)C4(OCCO4)C3=O)N1C[C@@H]1N[C@@H]12 (stereo partly shown) [Compound 8, 6-chloro-7-demethoxy-6,7-dihydro-7-ethylenedioxymitomycin A]			1.3 µg/mL (≈ 3.14 µM)	3.75 mg/kg	0.039 µg/mL (≈ 0.0942 µM)	0.039 µg/mL (≈ 0.0942 µM)	1.3 µg/mL (≈ 3.14 µM)			> 164%	> 0.93				
CC1C(=O)C2=C(C(=O)C13OCCO3)[C@H](COC(N)=O)[C@@]1(O)[C@@H]3[C@H](CN21)N3C (stereo partly shown) [Compound 2, 7-demethoxy-6,7-dihydro-7-ethylenedioxymitomycin B]			2.6 µg/mL (≈ 6.85 µM)	7.5 mg/kg	1.3 µg/mL (≈ 3.43 µM)	2.5 µg/mL (≈ 6.59 µM)	0.63 µg/mL (≈ 1.66 µM)					173%	1.06		
CO[C@]12[C@@H]3[C@H](CN1C1=C(C(=O)C4(OCCO4)C(C)C1=O)[C@@H]2COC(N)=O)N3C (stereo partly shown) [Compound 4, 7-demethoxy-6,7-dihydro-7-ethylenedioxymitomycin J]			0.31 µg/mL (≈ 0.788 µM)	6 mg/kg	0.31 µg/mL (≈ 0.788 µM)	0.63 µg/mL (≈ 1.6 µM)	0.63 µg/mL (≈ 1.6 µM)					180%	1.16		
CO[C@@]12[C@H](COC(N)=O)C3=C(C(=O)C(C)C4(OCCO4)C3=O)N1C[C@H]1[C@@H]2N1C (stereo partly shown) [Compound 3, 7-demethoxy-6,7-dihydro-7-ethylenedioxymitomycin F]			0.31 µg/mL (≈ 0.788 µM)	4.5 mg/kg	0.31 µg/mL (≈ 0.788 µM)	0.31 µg/mL (≈ 0.788 µM)	0.63 µg/mL (≈ 1.6 µM)							153%	0.77
CO[C@@]12[C@H](COC(N)=O)C3=C(C(=O)C(C)(Br)C4(OCCO4)C3=O)N1C[C@H]1[C@@H]2N1C (stereo partly shown) [Compound 10, 6-bromo-7-demethoxy-6,7-dihydro-7-ethylenedioxymitomycin F]			2.5 µg/mL (≈ 5.29 µM)		5 µg/mL (≈ 10.6 µM)	0.63 µg/mL (≈ 1.33 µM)	5 µg/mL (≈ 10.6 µM)								
